# Data taken from patent publication US20030225044A1, “Method to increase serum levels of vitamins in animals including humans” (priority 2002, published 2003).
# What was measured:
# Assay type in all cases: in vivo, beef steers
# [1] = Serum 25-Hydroxy-Vitamin D3 after intranasal or transdermal administration (Example II); settings: for fold increase in the 25-Hydroxy-Vitamin D3 serum level / percent increase in the 25-Hydroxy-Vitamin D3 serum level: nasal delivery
# Description: These five treatments were:
# Treatments were applied and cattle were bled via jugular venipuncture at 0, 6, and 24 hours post-dosing.
# [2] = Dose/response of nasal administration, serum 25-Hydroxy-Vitamin D3 (Example III); settings: intranasal
# Description: To study the dose/response efficacy of nasal administration of Vitamin D, twelve (12) beef steers of mixed breeding were used to evaluate four treatments (3 replications). These four treatments were:
# (§1) Treatments were applied and cattle were bled via jugular venipuncture at 0 and 6 hours post-dosing.
# [3] = Buccal versus nasal administration, serum 25-Hydroxy-Vitamin D3 (Example IV); settings: for serum level change for each milligram administered: after 6 hours (FIG. 7)
# Description: To study the dose/response efficacy of buccal administration of one or more vitamins, beef steers of mixed breeding were used to evaluate three treatments (3 replications). These three treatments were:
# as §1
# [4] = Serum 25-Hydroxy-Vitamin D3 after intravenous infusion (Example I); settings: 125 mg intravenous infusion
# Description: Applicants infused three (3) beef steers of mixed breeding with 125 milligrams of 25-Hydroxy-Vitamin D3 intravenously. Blood was drawn just prior to the intravenous infusion and at 6 hours and 24 hours post administration.
# Point 120, representing 116 nanomoles per liter, comprises the serum level of 25-Hydroxy-Vitamin D3 just prior to the intravenous infusion. At 6 hours post administration, the serum blood level was measured as 2432 nanomoles per liter, i.e. point 130. […] At 24 hours post administration, the serum blood level was measured as 1011 nanomoles per liter, i.e. point 140.
# [5] = Treatment 2: 125 mg 25-OH D3, ethanol, intranasal, 6 Hours
# [6] = Treatment 2: 125 mg 25-OH D3, ethanol, intranasal, 24 Hours
# [7] = Treatment 2: 125 mg 25-OH D3, ethanol, intranasal, time 0
# [8] = Treatment 2: 125 mg in ethanol, 6 hours post administration (FIG. 2, point 212)
# [9] = Treatment 2: 125 mg in ethanol, 24 hours post administration (FIG. 2, point 214)
# [10] = Treatment 3: 125 mg 25-OH D3, powder, intranasal, 6 Hours
# [11] = Treatment 3: 125 mg 25-OH D3, powder, intranasal, 24 Hours
# [12] = Treatment 3: 125 mg 25-OH D3, powder, intranasal, time 0
# [13] = Treatment 4: 125 mg 25-OH D3, corn oil, intranasal, 6 Hours
# [14] = Treatment 4: 125 mg 25-OH D3, corn oil, intranasal, 24 Hours
# [15] = Treatment 4: 125 mg 25-OH D3, corn oil, intranasal, time 0
# [16] = Treatment 5: 125 mg 25-OH D3, transdermal (inner ear), 6 Hours
# [17] = Treatment 5: 125 mg 25-OH D3, transdermal (inner ear), 24 Hours
# [18] = Treatment 5: 125 mg 25-OH D3, transdermal (inner ear), time 0
smiles,measurement,setting,value
C=C1CC[C@H](O)C/C1=C/C=C1\CCC[C@]2(C)[C@@H]([C@H](C)CCCC(C)(C)O)CC[C@@H]12 [25-Hydroxy-Vitamin D3],Average Serum Levels-25-Hydroxy-Vitamin D3,[1]; [5],226 nmol/L
same,Multiple change from time 0 of serum 25-Hydroxy-Vitamin D3,[1]; [5],3.0
same,Average Serum Levels-25-Hydroxy-Vitamin D3,[1]; [6],354 nmol/L
same,Multiple change from time 0 of serum 25-Hydroxy-Vitamin D3,[1]; [6],4.7
same,Average Serum Levels-25-Hydroxy-Vitamin D3,[1]; [7],75 nmol/L
same,Multiple change from time 0 of serum 25-Hydroxy-Vitamin D3,[1]; [7],0
same,course of serum level of 25-Hydroxy-Vitamin D3,"[1]; Treatment 2: 125 mg in ethanol, nasal delivery (FIG. 2, curve 210)",increases throughout the time period from 0 hours to 24 hours post administration
same,fold increase in the 25-Hydroxy-Vitamin D3 serum level,[1]; [8],more than a three fold increases
same,percent increase in the 25-Hydroxy-Vitamin D3 serum level,[1]; [8],~200%
same,fold increase in the 25-Hydroxy-Vitamin D3 serum level,[1]; [9],greater than 4.7 fold
same,percent increase in the 25-Hydroxy-Vitamin D3 serum level,[1]; [9],~375%
same,Average Serum Levels-25-Hydroxy-Vitamin D3,[1]; [10],104 nmol/L
same,Multiple change from time 0 of serum 25-Hydroxy-Vitamin D3,[1]; [10],1.2
same,Average Serum Levels-25-Hydroxy-Vitamin D3,[1]; [11],156 nmol/L
same,Multiple change from time 0 of serum 25-Hydroxy-Vitamin D3,[1]; [11],1.9
same,Average Serum Levels-25-Hydroxy-Vitamin D3,[1]; [12],83 nmol/L
same,Multiple change from time 0 of serum 25-Hydroxy-Vitamin D3,[1]; [12],0
same,course of serum level of 25-Hydroxy-Vitamin D3,"[1]; Treatment 3: 125 mg powder, nasal delivery (FIG. 2, curve 220)",increases throughout the time period from 0 hours to 24 hours post administration
same,Average Serum Levels-25-Hydroxy-Vitamin D3,[1]; [13],95 nmol/L
same,Multiple change from time 0 of serum 25-Hydroxy-Vitamin D3,[1]; [13],1.0
same,Average Serum Levels-25-Hydroxy-Vitamin D3,[1]; [14],179 nmol/L
same,Multiple change from time 0 of serum 25-Hydroxy-Vitamin D3,[1]; [14],1.9
same,Average Serum Levels-25-Hydroxy-Vitamin D3,[1]; [15],94 nmol/L
same,Multiple change from time 0 of serum 25-Hydroxy-Vitamin D3,[1]; [15],0
same,course of serum level of 25-Hydroxy-Vitamin D3,"[1]; Treatment 4: 125 mg in corn oil, nasal delivery (FIG. 2, curve 230)",increases throughout the time period from 6 hours to 24 hours post administration
same,Average Serum Levels-25-Hydroxy-Vitamin D3,[1]; [16],81 nmol/L
same,Multiple change from time 0 of serum 25-Hydroxy-Vitamin D3,[1]; [16],1.1
same,Average Serum Levels-25-Hydroxy-Vitamin D3,[1]; [17],96 nmol/L
same,Multiple change from time 0 of serum 25-Hydroxy-Vitamin D3,[1]; [17],1.3
same,Average Serum Levels-25-Hydroxy-Vitamin D3,[1]; [18],74 nmol/L
same,Multiple change from time 0 of serum 25-Hydroxy-Vitamin D3,[1]; [18],0
same,Average Serum Levels-25-Hydroxy-Vitamin D3,"[2]; Treatment 2: 30 mg 25-OH D3 in 1 ml ethanol, 6 Hours",149.67 nmoI/L
same,Average Serum Levels-25-Hydroxy-Vitamin D3,"[2]; Treatment 2: 30 mg 25-OH D3 in 1 ml ethanol, time 0",121.33 nmoI/L
same,"change in serum level per milligram administered, compared among dosages","[2]; Treatment 2: 30 mg in 1 ml ethanol, 6 hours, versus 60, 90, 120 mg (FIG. 5)",maximum change in serum level per milligram administered
same,Average Serum Levels-25-Hydroxy-Vitamin D3,"[2]; Treatment 3: 60 mg 25-OH D3 in 1 ml ethanol, 6 Hours",184.33 nmoI/L
same,Average Serum Levels-25-Hydroxy-Vitamin D3,"[2]; Treatment 3: 60 mg 25-OH D3 in 1 ml ethanol, time 0",144.67 nmoI/L
same,Average Serum Levels-25-Hydroxy-Vitamin D3,"[2]; Treatment 4: 90 mg 25-OH D3 in 1 ml ethanol, 6 Hours",180.67 nmoI/L
same,Average Serum Levels-25-Hydroxy-Vitamin D3,"[2]; Treatment 4: 90 mg 25-OH D3 in 1 ml ethanol, time 0",131.33 nmoI/L
same,Average Serum Levels-25-Hydroxy-Vitamin D3,"[2]; Treatment 5: 120 mg 25-OH D3 in 1 ml ethanol, 6 Hours",191.67 nmoI/L
same,Average Serum Levels-25-Hydroxy-Vitamin D3,"[2]; Treatment 5: 120 mg 25-OH D3 in 1 ml ethanol, time 0",122.33 nmoI/L
same,serum level change for each milligram administered,"[3]; Buccal administration (Treatment 3, 120 mg in 1 ml ethanol)",about 0.63 nmol/L for each milligram administered
same,serum level change for each milligram administered,"[3]; Nasal administration (Treatment 2, 120 mg in 1 ml ethanol)",about 0.57 nmol/L for each milligram administered
same,Average Serum Levels-25-Hydroxy-Vitamin D3,"[3]; Treatment 2: 120 mg 25-OH D3 in 1 ml ethanol, intranasal, 6 Hours",191.67 nmol/L
same,Average Serum Levels-25-Hydroxy-Vitamin D3,"[3]; Treatment 2: 120 mg 25-OH D3 in 1 ml ethanol, intranasal, time 0",122.33 nmol/L
same,effectiveness of buccal administration compared with nasal administration,"[3]; Treatment 3, buccal, in ethanol, versus Treatment 2, nasal, 0 to 6 hours (FIG. 6, curves 610 and 620)",comparatively as effective as nasal administration
same,Average Serum Levels-25-Hydroxy-Vitamin D3,"[3]; Treatment 3: 120 mg 25-OH D3 in 1 ml ethanol, buccal, 6 Hours",158.00 nmol/L
same,Average Serum Levels-25-Hydroxy-Vitamin D3,"[3]; Treatment 3: 120 mg 25-OH D3 in 1 ml ethanol, buccal, time 0",82.00 nmol/L
same,course of serum level of 25-Hydroxy-Vitamin D3,"[4]; 0 to 6 hours (FIG. 1, curve portion 112)",increases from 0 hours to 6 hours post administration
same,course of serum level of 25-Hydroxy-Vitamin D3,"[4]; 6 to 24 hours (FIG. 1, curve portion 114)",decreases from 6 hours to 24 hours post administration
same,serum level of 25-Hydroxy-Vitamin D3,[4]; 6 hours post administration,2432 nanomoles per liter
same,serum level of 25-Hydroxy-Vitamin D3,[4]; 24 hours post administration,1011 nanomoles per liter
same,serum level of 25-Hydroxy-Vitamin D3,[4]; just prior to infusion,116 nanomoles per liter
